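Values below derive from 48-hour exposures of cells grown in 96-well plates, with endpoints linearly interpolated between the two concentrations bracketing the appropriate inhibition level. GI50 marks 50% less growth. Definition used: TGI = concentration required for complete inhibition of growth.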
tested on: UACC-62 melanoma; experiment: inhibition of tumour cell growth, NCI panel, 48 h

SMILES	TGI [µM]	GI50 [µM]
COc1cc(C#CC(=O)OC/C=C/c2ccc3c(c2)OCO3)cc(OC)c1OC	37.2	
Cc1cc([N+](=O)[O-])ccc1Nc1cccc(Cl)c1C	27.2	
Cn1cc(CO)c2c1C(=O)C=C(N1CC1)C2=O	0.0163	< 0.01
CC1=C(C(=O)Nc2ccccc2)C(c2ccccc2)C(C(=O)Nc2ccccc2)=C(C)N1	> 100	
Cc1nn(-c2ccccc2)c2nc(N3CCOCC3)nnc12	> 100	
CC(C)c1ccc2c(c1)CC[C@@H]1[C@@](C)(C(=O)O)CCC[C@]21C	18.4	4.87
CCN(CC)CCOc1ccc(-c2nc3cc(Cl)ccc3s2)cc1	3.33	1.78
C=C1C(=O)O[C@@H]2C[C@@H]1CC/C(C)=C/CC/C(C)=C/CC[C@@]2(C)O	29.3	14
CCOc1ccccc1C=C1c2ccccc2C(=O)c2ccccc21	> 100	
O=C(CCn1[nH]c(=O)c(Cl)c(Cl)c1=O)NO	> 100	
CC(C)=CC/C=C(/C)[C@H]1CC[C@]2(C)[C@@H]1CC[C@@H]1[C@@]3(C)CCCNC(C)(C)[C@@H]3CC[C@]12C	20.1	5.5
[N-]=[N+]=NC12CC3C4CC5CC3C(C1)C(C5)C4C2	> 100	
CN(C)c1nc2ccccc2[nH]1	> 100	
NNC(=S)N/N=C(\CC1OC(=O)c2ccccc21)c1ccccc1O (stereo not given)	> 100	
COC(=O)C1=C(O)c2cc(OC)c(OC)cc2C(c2ccc(OC)c(OC)c2)C1 (stereo not given)	> 100	
COC1(OC)CC2C(=O)N(Cc3ccccc3)C1C(S(=O)(=O)c1ccccc1)C2S(=O)(=O)c1ccccc1 (stereo not given)	26.2	
NC(=Nc1c([N+](=O)[O-])cnc2ccccc12)N1CCOCC1	> 100	

SMILES	TGI [µM]	GI50 [µM]
Cc1cc(CC(O)c2ccc(Cl)c(Cl)c2)nc(=O)[nH]1 (stereo not given)	> 100	
COC(=O)C(=Cc1cc(OC)ccc1OC)C(=O)OC	73.7	
CC(C)c1ccccc1NC(=O)CCc1n[nH]c(=S)o1	> 100	
CC(C)=CCNc1ncnc2c1ncn2C1OC(CO)C(O)C1O (stereo not given)	> 1000	
CCCCC(C(=O)C(=O)NC1C2CC3CC(C2)CC1C3)C(=O)C(C)C (stereo not given)	> 100	
COC(=O)c1cc2c(s1)C(=O)c1ccccc1-2	> 100	
NC(=O)NC1C(c2ccccc2)=C1c1ccccc1	23.4	
Cn1c2c(c3ccccc31)C1CCCCCCC1C1C(=O)OC(=O)C21 (stereo not given)	> 100	
Cc1ccc(S(=O)(=O)N(CC(=O)O)c2ccccc2)cc1	> 100	
COc1ccc(C(=O)C(c2ccc(OC)cc2)C2(O)C(=O)Nc3ccc([N+](=O)[O-])cc32)cc1 (stereo not given)	> 100	
O=C(/C=C/c1ccccc1O)c1ccccc1O	> 100	
N#CC(N)(C(=O)CCC(=O)Nc1cccc(Cl)c1)c1ccc(Cl)cc1 (stereo not given)	> 100	
S=C(Nc1ccccc1)N(/N=C/C=C/c1ccccc1)c1nnc(-c2ccccc2)c(-c2ccccc2)n1	> 100	
CN1CCN(CCOc2ccc(-c3cnc4c(-c5ccccc5F)cnn4c3)cc2)CC1	3.17	1.69
CN(C)N=Nc1ccc(NC=O)cc1	> 100	
COc1cc(C2CC(c3cccc(Br)c3)=NN2C(C)=O)cc(OC)c1OC (stereo not given)	29.3	0.309

tested on: MDA-MB-231 breast; experiment: inhibition of tumour cell growth, NCI panel, 48 h

SMILES	GI50 [µM]	TGI [µM]
OC[C@H]1C[C@](O)(c2ccc(Cl)cc2)[C@@H](c2ccc(Cl)cc2)O1	19.6	46.9
C=COCCCOc1ccccc1	> 100	> 100
COc1cc2nc(-c3ccc(Cl)cc3)cc(OCCCN3CCCCC3)c2cc1OC	0.666	4
C=C(c1nc2ccc(Cl)cc2[nH]c1=O)C(O)c1ccc(C(O)C(=O)c2nc3ccc(Cl)cc3[nH]c2=O)cc1 (stereo not given)		> 100
O=c1c2sc(=S)n(-c3ccc(F)cc3)c2ncn1Cc1ccc(F)cc1F	> 100	> 100
COc1cc(C#CC(=O)OC/C=C/c2ccc3c(c2)OCO3)cc(OC)c1OC		79.4
Cn1cc(CO)c2c1C(=O)C=C(N1CC1)C2=O	2.66	5.96
CC(C)c1ccc2c(c1)CC[C@@H]1[C@@](C)(C(=O)O)CCC[C@]21C	1.31	6.04
CCN(CC)CCOc1ccc(-c2nc3cc(Cl)ccc3s2)cc1	1.47	2.92
C=C1C(=O)O[C@@H]2C[C@@H]1CC/C(C)=C/CC/C(C)=C/CC[C@@]2(C)O	8.56	31.8
NC(=Nc1c([N+](=O)[O-])cnc2ccccc12)N1CCOCC1		> 100
CC(C)=CCNc1ncnc2c1ncn2C1OC(CO)C(O)C1O (stereo not given)	1.52	9.33
NC(=O)NC1C(c2ccccc2)=C1c1ccccc1		38.2
CN1CCN(CCOc2ccc(-c3cnc4c(-c5ccccc5F)cnn4c3)cc2)CC1	1.54	3.08
CN(C)N=Nc1ccc(NC=O)cc1		> 100
COc1cc(C2CC(c3cccc(Br)c3)=NN2C(C)=O)cc(OC)c1OC (stereo not given)	1.67	> 46

tested on: SF-295 CNS; experiment: inhibition of tumour cell growth, NCI panel, 48 h

SMILES	GI50 [µM]	TGI [µM]
OC[C@H]1C[C@](O)(c2ccc(Cl)cc2)[C@@H](c2ccc(Cl)cc2)O1	30.1	84.8
CC(C)N(C(=O)C12C3C4C5(C#N)C3C1(C#N)C5C42I)C(C)C (stereo not given)		> 100
C=COCCCOc1ccccc1	> 100	> 100
COc1cc2nc(-c3ccc(Cl)cc3)cc(OCCCN3CCCCC3)c2cc1OC	1.21	2.81
COc1ccc2c3c([nH]c2c1[N+](=O)[O-])C(C)=NCC3		> 100
C=C(c1nc2ccc(Cl)cc2[nH]c1=O)C(O)c1ccc(C(O)C(=O)c2nc3ccc(Cl)cc3[nH]c2=O)cc1 (stereo not given)		> 100
O=c1c2sc(=S)n(-c3ccc(F)cc3)c2ncn1Cc1ccc(F)cc1F	81.9	> 100
CC(C)(C)CC(C)(C)c1cc2c(O)c(c1)Cc1cc(C(C)(C)CC(C)(C)C)cc(c1O)Cc1cc(C(C)(C)CC(C)(C)C)cc(c1O)Cc1cc(C(C)(C)CC(C)(C)C)cc(c1O)C2		> 100
COc1cc(C#CC(=O)OC/C=C/c2ccc3c(c2)OCO3)cc(OC)c1OC		> 100
Cc1cc([N+](=O)[O-])ccc1Nc1cccc(Cl)c1C		34.6
Cn1cc(CO)c2c1C(=O)C=C(N1CC1)C2=O	< 0.01	
CC1=C(C(=O)Nc2ccccc2)C(c2ccccc2)C(C(=O)Nc2ccccc2)=C(C)N1		> 100
Cc1nn(-c2ccccc2)c2nc(N3CCOCC3)nnc12		> 100
CC(C)c1ccc2c(c1)CC[C@@H]1[C@@](C)(C(=O)O)CCC[C@]21C	3.74	17.1
CCN(CC)CCOc1ccc(-c2nc3cc(Cl)ccc3s2)cc1	1.38	2.77
C=C1C(=O)O[C@@H]2C[C@@H]1CC/C(C)=C/CC/C(C)=C/CC[C@@]2(C)O	16.6	32.2
CCOc1ccccc1C=C1c2ccccc2C(=O)c2ccccc21		> 100
O=C(CCn1[nH]c(=O)c(Cl)c(Cl)c1=O)NO		> 100
CC(C)=CC/C=C(/C)[C@H]1CC[C@]2(C)[C@@H]1CC[C@@H]1[C@@]3(C)CCCNC(C)(C)[C@@H]3CC[C@]12C	2	3.83
[N-]=[N+]=NC12CC3C4CC5CC3C(C1)C(C5)C4C2		> 100
CN(C)c1nc2ccccc2[nH]1		> 100
NNC(=S)N/N=C(\CC1OC(=O)c2ccccc21)c1ccccc1O (stereo not given)		40.4
COC(=O)C1=C(O)c2cc(OC)c(OC)cc2C(c2ccc(OC)c(OC)c2)C1 (stereo not given)		> 100
COC1(OC)CC2C(=O)N(Cc3ccccc3)C1C(S(=O)(=O)c1ccccc1)C2S(=O)(=O)c1ccccc1 (stereo not given)		> 100
NC(=Nc1c([N+](=O)[O-])cnc2ccccc12)N1CCOCC1		> 100
Cc1cc(CC(O)c2ccc(Cl)c(Cl)c2)nc(=O)[nH]1 (stereo not given)		90
COC(=O)C(=Cc1cc(OC)ccc1OC)C(=O)OC		82.1
CC(C)c1ccccc1NC(=O)CCc1n[nH]c(=S)o1		> 100
CC(C)=CCNc1ncnc2c1ncn2C1OC(CO)C(O)C1O (stereo not given)	0.671	2.6

Source: PubChem BioAssay (NCI)
